Source: patent publication US12065435B2, “Compounds for the treatment of glycogen storage disorders” (HADASIT MEDICAL RESEARCH SERVICES AND DEVELOPMENT LTD., priority 2017, dated 2024)

Key:
[1] = system: polyglucosan body (PB) in APBD patient-derived fibroblasts; assay: High content (image-based) PAS screening assay for polyglucosan bodies; format: cell-based, human; conditions: 0, 1, 5, 10 and 50 μM
Protocol: All the steps of the assay were performed automatically using a Freedom Evo 150 liquid handling robot (Tecan). APBD patient-derived fibroblasts were seeded at a density of 800 cells/well in DMEM (Gibco) supplemented with 1 mM sodium pyruvate (Gibco), 1% antibiotics (Biological Industries, Israel) and 5% fetal bovine serum (Hyclone) into 384 well microclear plates (Greiner). The plates were transferred by the robotic arm (RoMa) into an automated incubator (Liconic), integrated with the robotic system, where they were incubated at 37° C. with 5% CO2. Following 24 h incubation, the medium was replaced by the robot using medium supplemented with 10 μM of each screened compound (0.1% DMSO final concentration, all prepared by the robot). The screened compounds were part of the Diverset CL collection purchased from ChemBridge (10,084 out of 50,000 molecules).
Next, these cells were cultured for another 24 h in the automated incubator, and, using the robot, washed them with PBS (Biological Industries, Israel), the cells were fixed with 4% paraformaldehyde (PFA), washed again with PBS, neutralized the previously added PFA by ammonium chloride (Sigma Aldrich), washed with PBS, permeabilized with 0.1% Triton X-100 (Sigma Aldrich), and washed again with PBS.
Following this, a robot was used to treat the fixed cells with 0.5 g/dl diastase (or amylase, Sigma Aldrich) for 5 minutes at 37° C. in the automated incubator, wash with PBS, stained with PAS (Merck), Hoechst 33342 (Sigma Aldrich) and Cell Mask Deep Red (Molecular Probes) and wash with PBS. Images of stained cells were then acquired by the IN Cell Analyzer 2000 (GE Healthcare) and analyzed using the IN Cell Investigator (GE Healthcare) applying an algorithm that quantified the PAS signal within each Cell Mask stained cell.
Images were segmented based on the Cell Mask signal which was linked with the segmentation of the nuclei, employing an empirically established sensitivity and kernel size for allowing the best segmentation. Once these nucleus-cytoplasm complex objects were selected, the software calculated the number of these objects (cell number) as well as the intensity of the PAS signal within each of them. All the assay parameters (including the acquisition exposure times, objective, and the analysis parameters) were kept constant throughout the whole screening campaign for allowing comparison of signals obtained from different batches of assay within the campaign.
The assay was performed as mentioned above, but with compound concentrations of 1, 5, 10, and 50 μM, instead of a constant concentration of 10 μM.
The discarded data was presumably associated with cells affected by toxic compounds. In the remaining data, the measured population mean PB intensity was normalized. Based on a series of images used for training, compounds were considered as positive only where following treatment the normalized PB mean intensity was at least under −1.2 z-score of the scale. Following this approach, 85 potential hits out of the 10,084 screened compounds were selected (0.84%).

recombinant human GS1 = molecular target: T1, recombinant human GS1 (Homo sapiens, UniProt P13807); assay: In vitro GS activity assay; format: biochemical; conditions: 50 μM; unpaired t-tests, p<0.05
T1 sequence (P13807 1-737): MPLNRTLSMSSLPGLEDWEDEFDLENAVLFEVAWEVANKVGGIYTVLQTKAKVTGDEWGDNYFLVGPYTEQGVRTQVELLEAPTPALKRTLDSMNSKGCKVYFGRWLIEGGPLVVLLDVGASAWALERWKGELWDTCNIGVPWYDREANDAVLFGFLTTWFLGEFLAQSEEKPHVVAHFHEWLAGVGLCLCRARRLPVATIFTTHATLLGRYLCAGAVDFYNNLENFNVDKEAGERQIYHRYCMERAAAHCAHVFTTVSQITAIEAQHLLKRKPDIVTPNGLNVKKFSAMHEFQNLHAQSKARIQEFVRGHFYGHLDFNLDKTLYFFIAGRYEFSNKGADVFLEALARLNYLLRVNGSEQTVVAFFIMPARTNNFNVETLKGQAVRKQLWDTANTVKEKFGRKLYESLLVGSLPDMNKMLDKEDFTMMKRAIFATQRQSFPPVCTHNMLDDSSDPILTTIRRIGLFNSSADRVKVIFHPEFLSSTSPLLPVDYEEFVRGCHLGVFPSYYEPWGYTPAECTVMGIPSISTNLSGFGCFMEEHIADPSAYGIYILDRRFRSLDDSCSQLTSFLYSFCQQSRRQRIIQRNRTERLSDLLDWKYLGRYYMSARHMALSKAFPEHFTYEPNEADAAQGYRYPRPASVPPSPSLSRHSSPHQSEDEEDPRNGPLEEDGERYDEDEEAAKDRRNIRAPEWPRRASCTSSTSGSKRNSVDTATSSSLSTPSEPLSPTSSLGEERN
Protocol: The reaction was carried out in 96-well plates containing 50 μl of reaction volume (50 mM Tris, pH8, 20 mM EDTA, 25 mM KF, 2 mg/ml glycogen, 10 mM Glucose-6-Phosphate, 1.65 mM UDP[14C]glucose and 100 mM UDP-glucose). To test the inhibitory effect of the hits, each one was included in the reaction at a final concentration of 50 μM. The reaction was initiated with the addition of 20 nM recombinant human GS1, followed by incubation at 37° C. for 30 min. The reaction was then stopped with the addition of 100 μl cold 100% ethanol, and the total suspension was transferred into a 96-well filter plate. Vacuum was applied to remove the ethanol. Five washing steps with 150 μl of cold 66% ethanol then fully removed any non-incorporated UDP[14C]glucose, while the labelled glycogen stayed on the well filters. The plate was dried at 37° C. incubator for 30 min. 50 μl of scintillation fluid was added to each well and the plate was read for 14C signal on Microplate scintillation and luminescence counter Top Count (Perkin Elmer).

effect on GS activity (direction of change) (recombinant human GS1) | SMILES | dose response of diastase resistant cell associated mean PAS intensity normalized by z-score [1]
– | COc1ccc(-c2ncc(C)c(N)n2)c(C)c1 [UDP #16, 2-(4-methoxy-2-methylphenyl)-5-methylpyrimidin-4-amine] | lowered mean normalized PAS intensity in a non-dose responding manner
– | O=C(CN1CCOC1=O)N1CC[C@@H](c2ccc3ccccc3c2)[C@H](O)C1 (relative stereo) [UDP #5, 3-{2-[(3S*,4S*)-3-hydroxy-4-(2-naphthyl)piperidin-1-yl]-2-oxoethyl}-1,3-oxazolidin-2-one] | concentration dependent
increasing | O=C(c1ccoc1)N1CCOc2c(O)cc(-c3cccc(Cl)c3)cc2C1 [UDP #12, 7-(3-chlorophenyl)-4-(3-furoyl)-2,3,4,5-tetrahydro-1,4-benzoxazepin-9-ol] | concentration dependent
– | COc1cc(F)c(CN2CCN(c3cncc(C(N)=O)n3)CC2)c(F)c1 [UDP #2, 6-[4-(2,6-difluoro-4-methoxybenzyl)piperazin-1-yl]pyrazine-2-carboxamide] | concentration dependent
– | Cc1c(NC(=O)c2ccco2)cccc1C(=O)N1CCC2(CCCNC2)C1 (centres unmarked) [UDP #17, N-[3-(2,7-diazaspiro[4.5]dec-2-ylcarbonyl)-2-methylphenyl]-2-furamide] | concentration dependent
– | Oc1ccc(-c2cc(NCc3cccnc3)nc3[nH]ccc23)c(F)c1 [UDP #1, 3-fluoro-4-{6-[(pyridin-3-ylmethyl)amino]-1H-pyrrolo[2,3-b]pyridin-4-yl}phenol] | lowered mean normalized PAS intensity in a non-dose responding manner
increasing | Cc1nc(C(C)C)cc(N2CCN(Cc3ncccc3C)CC2)n1 [UDP #7, 4-isopropyl-2-methyl-6-{4-[(3-methylpyridin-2-yl)methyl]piperazin-1-yl}pyrimidine] | lowered mean normalized PAS intensity in a non-dose responding manner
– | CCc1ccc(CN(C)C(=O)c2ccc3c(c2)no[n+]3[O-])nc1 [UDP #11, N-[(5-ethylpyridin-2-yl)methyl]-N-methyl-2,1,3-benzoxadiazole-5-carboxamide 1-oxide] | concentration dependent
– | CCO[C@H]1COC[C@@H]1NC(=O)Cc1c(C)nc(N)nc1C (relative stereo) [UDP #13, 2-(2-amino-4,6-dimethylpyrimidin-5-yl)-N-[(3S*,4R*)-4-ethoxytetrahydrofuran-3-yl]acetamide] | concentration dependent
– | CC(C)CCN1CCNC(=O)C1CC(=O)N1CCc2[nH]nc(C3CC3)c2C1 (centres unmarked) [UDP #3, 3-[2-(3-cyclopropyl-1,4,6,7-tetrahydro-5H-pyrazolo[4,3-c]pyridin-5-yl)-2-oxoethyl]-4-(3-methylbutyl)-2-piperazinone] | lowered mean normalized PAS intensity in a non-dose responding manner
increasing | Cc1ccc(NC(=O)CCn2cnc(-c3ccccc3)c2C2CCOC2)c(C)c1 (centres unmarked) [UDP #18, N-(2,4-dimethylphenyl)-3-[4-phenyl-5-(tetrahydrofuran-3-yl)-1H-imidazol-1-yl]propanamide] | lowered mean normalized PAS intensity in a non-dose responding manner
– | CC(C)(C)c1ccc(O)c(-n2cnnc2)c1 [UDP #14, 4-tert-butyl-2-(4H-1,2,4-triazol-4-yl)phenol] | concentration dependent
increasing | CC(C)n1ccnc1CN1CCC(c2[nH]ncc2-c2cccc(F)c2)CC1 [UDP #6, 4-[4-(3-fluorophenyl)-1H-pyrazol-5-yl]-1-[(1-isopropyl-1H-imidazol-2-yl)methyl]piperidine] | concentration dependent
– | Cn1nc(-c2cccs2)cc1C(=O)N1[C@@H]2CC[C@H]1CNC(=O)C2 (relative stereo) [UDP #9, (1S*,6R*)-9-{[1-methyl-3-(2-thienyl)-1H-pyrazol-5-yl]carbonyl}-3,9-diazabicyclo[4.2.1]nonan-4-one] | lowered mean normalized PAS intensity in a non-dose responding manner
increasing | CC1CCC(=O)N1c1ccc(-n2cnnc2)cc1 (centres unmarked) [UDP #8, 5-methyl-1-[4-(4H-1,2,4-triazol-4-yl)phenyl]pyrrolidin-2-one] | concentration dependent
– | C1CCc2c(n[nH]c2CCNC2CCC3(CCNCC3)CC2)C1 [UDP #15] | concentration dependent

SMILES | effect on GS activity (direction of change) (recombinant human GS1) | dose response of diastase resistant cell associated mean PAS intensity normalized by z-score [1]
Cc1ccc2c(c1)c(CNC(=O)c1ccccc1C1CCNC1)nn2C (centres unmarked) [UDP #10, N-[(1,5-dimethyl-1H-indazol-3-yl)methyl]-2-(3-pyrrolidinyl)benzamide] | except for compound #10, have significantly changed GS activity | lowered mean normalized PAS intensity in a non-dose responding manner
